Data reported in patent US9738612B2, “Methylacryloyl benzimidazolone derivative and anti-tumour use thereof” (SHANGHAI NATURE STANDARD R&D AND BIOTECH CO., LTD, priority 2014, dated 2017).

Experiments:
Experiment in all cases: Tumor-associated kinase inhibition test
Format in all cases: biochemical
Conditions in all cases: read-out: Inhibitory rate (%)
PDGFRβ(h) = target: T1, PDGFRβ(h) (Homo sapiens, UniProt P09619)
T1 construct: purchased Eurofins Pharma Discovery Services UK Limited
From the text: (§1) Eurofins Pharma Discovery Services UK Limited completed and reported this experiment.

Ron(h) = target: T2, Ron(h) (Homo sapiens, UniProt Q04912)
T2 construct: purchased Eurofins Pharma Discovery Services UK Limited
From the text: as §1

Abl(h) = target: T3, Abl(h) (Homo sapiens, UniProt P00519)
T3 construct: purchased Eurofins Pharma Discovery Services UK Limited (contract assay service)
From the text: as §1

PKCμ(h) = target: T4, PKCμ(h) (Homo sapiens, UniProt Q15139)
T4 construct: purchased Eurofins Pharma Discovery Services UK Limited
From the text: as §1

JNK2α2(h) = target: T5, JNK2α2(h) (Homo sapiens, UniProt P45984)
T5 construct: purchased Eurofins Pharma Discovery Services UK Limited (contract testing)
From the text: as §1

CDK2/cyclinA(h) = target: T6, CDK2/cyclinA(h) (Homo sapiens, UniProt P24941)
T6 construct: purchased Eurofins Pharma Discovery Services UK Limited (contract assay service)
From the text: as §1

[1] = target: T7, PI3Kinase(p110α(E545K)/p85α)(h) (Homo sapiens, UniProt P42336, E545K)
T7 construct: purchased Eurofins Pharma Discovery Services UK Limited (contract assay)
From the text: as §1

PKCδ(h) = target: T8, PKCδ(h) (Homo sapiens, UniProt Q05655)
T8 construct: purchased Eurofins Pharma Discovery Services UK Limited
From the text: as §1

CK1δ(h) = target: T9, CK1δ(h) (Homo sapiens, UniProt P48730)
T9 construct: purchased Eurofins Pharma Discovery Services UK Limited (contract testing)
From the text: as §1

MAPK1(h) = target: T10, MAPK1(h) (Homo sapiens, UniProt P27361)
T10 construct: purchased Eurofins Pharma Discovery Services UK Limited
From the text: as §1

PKCε(h) = target: T11, PKCε(h) (Homo sapiens, UniProt Q02156)
T11 construct: purchased Eurofins Pharma Discovery Services UK Limited
From the text: as §1

PI3Kinase(p110β/p85α)(h) = target: T12, PI3Kinase(p110β/p85α)(h) (Homo sapiens, UniProt P42338)
T12 construct: purchased Eurofins Pharma Discovery Services UK Limited (contract assay)
From the text: as §1

B-Raf(h) = target: T13, B-Raf(h) (Homo sapiens, UniProt P15056)
T13 construct: purchased Eurofins Pharma Discovery Services UK Limited (contract assay service)
From the text: as §1

Itk(h) = target: T14, Itk(h) (Homo sapiens, UniProt Q08881)
T14 construct: purchased Eurofins Pharma Discovery Services UK Limited (contract testing)
From the text: as §1

CaMKIV(h) = target: T15, CaMKIV(h) (Homo sapiens, UniProt Q16566)
T15 construct: purchased Eurofins Pharma Discovery Services UK Limited (contract assay service)
From the text: as §1

p70S6K(h) = target: T16, p70S6K(h) (Homo sapiens, UniProt P23443)
T16 construct: purchased Eurofins Pharma Discovery Services UK Limited
From the text: as §1

PKA(h) = target: T17, PKA(h) (Homo sapiens, UniProt P17612)
T17 construct: purchased Eurofins Pharma Discovery Services UK Limited
From the text: as §1

Bmx(h) = target: T18, Bmx(h) (Homo sapiens, UniProt P51813)
T18 construct: purchased Eurofins Pharma Discovery Services UK Limited (contract assay service)
From the text: as §1

CK2(h) = target: T19, CK2(h) (Homo sapiens, UniProt P68400)
T19 construct: purchased Eurofins Pharma Discovery Services UK Limited (contract testing)
From the text: as §1

PAR-1Bα(h) = target: T20, PAR-1Bα(h) (Homo sapiens, UniProt Q7KZI7)
T20 construct: purchased Eurofins Pharma Discovery Services UK Limited
From the text: as §1

BTK(h) = target: T21, BTK(h) (Homo sapiens, UniProt Q06187)
T21 construct: purchased Eurofins Pharma Discovery Services UK Limited (contract assay service)
From the text: as §1

PRAK(h) = target: T22, PRAK(h) (Homo sapiens, UniProt Q8IW41)
T22 construct: purchased Eurofins Pharma Discovery Services UK Limited
From the text: as §1

CDK7/cyclinH/MAT1(h) = target: T23, CDK7/cyclinH/MAT1(h) (Homo sapiens, UniProt P50613)
T23 construct: purchased Eurofins Pharma Discovery Services UK Limited (contract assay service)
From the text: as §1

MAPK2(h) = target: T24, MAPK2(h) (Homo sapiens, UniProt P28482)
T24 construct: purchased Eurofins Pharma Discovery Services UK Limited
From the text: as §1

PKCθ(h) = target: T25, PKCθ(h) (Homo sapiens, UniProt Q04759)
T25 construct: purchased Eurofins Pharma Discovery Services UK Limited
From the text: as §1

[2] = target: T26, PI3Kinase(p110α(H1047R)/p85α)(h) (Homo sapiens, UniProt P42336, H1047R)
T26 construct: purchased Eurofins Pharma Discovery Services UK Limited (contract assay)
From the text: as §1

FGFR1(h) = target: T27, FGFR1(h) (Homo sapiens, UniProt P11362)
T27 construct: purchased Eurofins Pharma Discovery Services UK Limited (contract testing)
From the text: as §1

PI3Kinase(p120γ)(h) = target: T28, PI3Kinase(p120γ)(h) (Homo sapiens, UniProt P48736)
T28 construct: purchased Eurofins Pharma Discovery Services UK Limited (contract assay)
From the text: as §1

Met(h) = target: T29, Met(h) (Homo sapiens, UniProt P08581)
T29 construct: purchased Eurofins Pharma Discovery Services UK Limited
From the text: as §1

PKCζ(h) = target: T30, PKCζ(h) (Homo sapiens, UniProt Q05513)
T30 construct: purchased Eurofins Pharma Discovery Services UK Limited
From the text: as §1

PRK2(h) = target: T31, PRK2(h) (Homo sapiens, UniProt Q16513)
T31 construct: purchased Eurofins Pharma Discovery Services UK Limited
From the text: as §1

Rsk3(h) = target: T32, Rsk3(h) (Homo sapiens, UniProt Q15349)
T32 construct: purchased Eurofins Pharma Discovery Services UK Limited
From the text: as §1

PKBβ(h) = target: T33, PKBβ(h) (Homo sapiens, UniProt P31751)
T33 construct: purchased Eurofins Pharma Discovery Services UK Limited
From the text: as §1

CaMKIIβ(h) = target: T34, CaMKIIβ(h) (Homo sapiens, UniProt Q13554)
T34 construct: purchased Eurofins Pharma Discovery Services UK Limited (contract assay service)
From the text: as §1

[3] = target: T35, PI3Kinase(p110α(E542K)/p85α)(h) (Homo sapiens, UniProt P42336, E542K)
T35 construct: purchased Eurofins Pharma Discovery Services UK Limited (contract assay)
From the text: as §1

MST2(h) = target: T36, MST2(h) (Homo sapiens, UniProt Q13188)
T36 construct: purchased Eurofins Pharma Discovery Services UK Limited
From the text: as §1

PKD2(h) = target: T37, PKD2(h) (Homo sapiens, UniProt Q9BZL6)
T37 construct: purchased Eurofins Pharma Discovery Services UK Limited
From the text: as §1

PKCβII(h) = target: T38, PKCβII(h) (Homo sapiens, UniProt P05771)
T38 construct: purchased Eurofins Pharma Discovery Services UK Limited
From the text: as §1

Rsk2(h) = target: T39, Rsk2(h) (Homo sapiens, UniProt P51812)
T39 construct: purchased Eurofins Pharma Discovery Services UK Limited
From the text: as §1

T36 sequence (Q13188 whole entry): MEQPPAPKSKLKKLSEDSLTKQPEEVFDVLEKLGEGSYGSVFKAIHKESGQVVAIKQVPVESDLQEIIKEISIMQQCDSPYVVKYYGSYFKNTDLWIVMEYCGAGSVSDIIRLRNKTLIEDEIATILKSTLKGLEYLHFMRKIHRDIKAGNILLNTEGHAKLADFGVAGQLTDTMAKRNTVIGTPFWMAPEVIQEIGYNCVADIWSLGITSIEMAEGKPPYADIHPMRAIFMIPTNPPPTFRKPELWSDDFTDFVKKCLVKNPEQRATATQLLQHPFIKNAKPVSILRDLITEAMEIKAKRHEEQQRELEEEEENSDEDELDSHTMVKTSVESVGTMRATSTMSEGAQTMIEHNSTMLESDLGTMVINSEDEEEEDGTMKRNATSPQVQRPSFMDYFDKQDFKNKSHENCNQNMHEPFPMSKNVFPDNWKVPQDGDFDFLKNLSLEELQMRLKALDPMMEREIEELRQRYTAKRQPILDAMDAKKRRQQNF
T27 sequence (P11362 22-822): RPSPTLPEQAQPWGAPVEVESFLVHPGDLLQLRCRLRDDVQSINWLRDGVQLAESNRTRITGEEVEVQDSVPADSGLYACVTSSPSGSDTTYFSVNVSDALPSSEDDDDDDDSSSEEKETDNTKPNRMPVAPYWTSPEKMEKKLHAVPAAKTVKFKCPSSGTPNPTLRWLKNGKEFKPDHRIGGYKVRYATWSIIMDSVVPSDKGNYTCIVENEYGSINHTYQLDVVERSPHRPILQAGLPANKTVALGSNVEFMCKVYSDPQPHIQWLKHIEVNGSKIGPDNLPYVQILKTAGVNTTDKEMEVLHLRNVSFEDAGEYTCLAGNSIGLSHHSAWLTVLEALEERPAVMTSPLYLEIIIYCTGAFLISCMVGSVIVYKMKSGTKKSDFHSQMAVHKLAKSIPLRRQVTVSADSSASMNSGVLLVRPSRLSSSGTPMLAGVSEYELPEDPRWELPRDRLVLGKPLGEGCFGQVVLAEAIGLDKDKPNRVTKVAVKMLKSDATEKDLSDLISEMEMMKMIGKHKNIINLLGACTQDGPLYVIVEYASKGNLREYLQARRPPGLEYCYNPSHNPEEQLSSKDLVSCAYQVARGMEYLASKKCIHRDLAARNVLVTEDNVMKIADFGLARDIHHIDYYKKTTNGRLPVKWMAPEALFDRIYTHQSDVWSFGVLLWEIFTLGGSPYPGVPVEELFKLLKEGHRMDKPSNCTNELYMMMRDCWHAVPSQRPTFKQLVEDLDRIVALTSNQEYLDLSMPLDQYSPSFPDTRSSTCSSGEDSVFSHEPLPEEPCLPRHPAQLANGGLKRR
T2 sequence (Q04912 25-1400): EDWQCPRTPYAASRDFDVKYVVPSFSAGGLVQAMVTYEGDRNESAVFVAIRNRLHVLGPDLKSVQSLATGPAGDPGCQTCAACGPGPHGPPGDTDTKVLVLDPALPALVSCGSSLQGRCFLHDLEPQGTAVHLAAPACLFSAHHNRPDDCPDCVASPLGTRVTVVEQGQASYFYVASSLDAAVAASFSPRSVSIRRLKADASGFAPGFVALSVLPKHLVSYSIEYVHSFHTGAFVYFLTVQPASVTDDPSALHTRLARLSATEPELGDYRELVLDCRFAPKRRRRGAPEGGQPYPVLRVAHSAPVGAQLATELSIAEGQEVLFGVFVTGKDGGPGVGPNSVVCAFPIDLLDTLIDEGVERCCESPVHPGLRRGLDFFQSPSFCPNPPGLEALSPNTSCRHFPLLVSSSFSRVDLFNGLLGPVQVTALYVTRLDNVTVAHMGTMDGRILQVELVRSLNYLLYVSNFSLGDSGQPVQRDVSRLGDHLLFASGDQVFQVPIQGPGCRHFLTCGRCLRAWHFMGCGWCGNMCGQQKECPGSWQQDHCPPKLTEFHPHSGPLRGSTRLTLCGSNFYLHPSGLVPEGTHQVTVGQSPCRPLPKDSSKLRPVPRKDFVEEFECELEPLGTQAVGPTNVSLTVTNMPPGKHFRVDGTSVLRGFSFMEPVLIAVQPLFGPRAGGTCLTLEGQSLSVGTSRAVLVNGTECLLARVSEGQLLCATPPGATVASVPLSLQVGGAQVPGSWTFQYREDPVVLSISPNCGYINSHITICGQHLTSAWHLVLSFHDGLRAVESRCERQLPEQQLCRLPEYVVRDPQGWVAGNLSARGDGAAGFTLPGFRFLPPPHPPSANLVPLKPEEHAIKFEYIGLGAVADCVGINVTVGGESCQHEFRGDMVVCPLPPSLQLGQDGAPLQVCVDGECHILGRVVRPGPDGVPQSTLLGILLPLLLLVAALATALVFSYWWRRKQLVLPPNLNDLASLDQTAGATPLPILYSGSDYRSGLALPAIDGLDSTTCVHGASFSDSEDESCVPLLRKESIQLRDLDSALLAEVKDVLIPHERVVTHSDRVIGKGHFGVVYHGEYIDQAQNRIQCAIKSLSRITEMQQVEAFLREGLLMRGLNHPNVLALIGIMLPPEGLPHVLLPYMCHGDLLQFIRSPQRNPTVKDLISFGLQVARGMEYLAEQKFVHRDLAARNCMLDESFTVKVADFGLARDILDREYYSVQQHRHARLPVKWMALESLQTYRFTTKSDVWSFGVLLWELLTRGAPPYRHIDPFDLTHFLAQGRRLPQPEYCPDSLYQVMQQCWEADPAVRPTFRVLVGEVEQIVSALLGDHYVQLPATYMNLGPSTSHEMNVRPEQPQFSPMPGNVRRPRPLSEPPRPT
T33 sequence (P31751 whole entry): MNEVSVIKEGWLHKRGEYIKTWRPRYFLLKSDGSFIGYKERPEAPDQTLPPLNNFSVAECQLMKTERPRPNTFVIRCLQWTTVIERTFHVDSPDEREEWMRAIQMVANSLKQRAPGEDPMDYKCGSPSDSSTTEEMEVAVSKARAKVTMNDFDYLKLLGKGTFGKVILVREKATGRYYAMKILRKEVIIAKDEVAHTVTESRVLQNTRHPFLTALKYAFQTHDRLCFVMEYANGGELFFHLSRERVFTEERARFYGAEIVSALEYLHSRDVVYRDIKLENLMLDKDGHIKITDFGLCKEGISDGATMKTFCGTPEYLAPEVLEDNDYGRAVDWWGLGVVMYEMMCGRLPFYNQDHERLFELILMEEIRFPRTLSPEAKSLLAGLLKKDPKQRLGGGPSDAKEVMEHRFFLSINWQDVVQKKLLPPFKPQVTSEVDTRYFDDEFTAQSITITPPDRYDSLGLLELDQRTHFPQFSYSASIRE
T38 sequence (P05771 1-673 isoform P05771-2): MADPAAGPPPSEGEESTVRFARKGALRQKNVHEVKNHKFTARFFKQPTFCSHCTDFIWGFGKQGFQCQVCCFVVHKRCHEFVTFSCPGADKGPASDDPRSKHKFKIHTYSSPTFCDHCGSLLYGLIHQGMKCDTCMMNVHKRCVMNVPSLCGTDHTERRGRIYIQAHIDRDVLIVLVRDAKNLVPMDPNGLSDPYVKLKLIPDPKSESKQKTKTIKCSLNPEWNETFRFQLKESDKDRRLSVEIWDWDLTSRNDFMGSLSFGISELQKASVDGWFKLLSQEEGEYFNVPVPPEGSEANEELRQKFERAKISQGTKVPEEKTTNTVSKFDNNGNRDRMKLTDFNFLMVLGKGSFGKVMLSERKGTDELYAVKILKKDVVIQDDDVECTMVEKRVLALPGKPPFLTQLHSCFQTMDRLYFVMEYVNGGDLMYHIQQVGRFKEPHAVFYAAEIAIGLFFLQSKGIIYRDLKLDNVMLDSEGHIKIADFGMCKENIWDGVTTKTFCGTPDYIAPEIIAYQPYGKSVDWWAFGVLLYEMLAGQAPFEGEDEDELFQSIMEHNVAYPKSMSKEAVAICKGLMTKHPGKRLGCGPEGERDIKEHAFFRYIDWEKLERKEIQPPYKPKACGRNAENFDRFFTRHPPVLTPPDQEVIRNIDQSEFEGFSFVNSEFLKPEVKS
T19 sequence (P68400 whole entry): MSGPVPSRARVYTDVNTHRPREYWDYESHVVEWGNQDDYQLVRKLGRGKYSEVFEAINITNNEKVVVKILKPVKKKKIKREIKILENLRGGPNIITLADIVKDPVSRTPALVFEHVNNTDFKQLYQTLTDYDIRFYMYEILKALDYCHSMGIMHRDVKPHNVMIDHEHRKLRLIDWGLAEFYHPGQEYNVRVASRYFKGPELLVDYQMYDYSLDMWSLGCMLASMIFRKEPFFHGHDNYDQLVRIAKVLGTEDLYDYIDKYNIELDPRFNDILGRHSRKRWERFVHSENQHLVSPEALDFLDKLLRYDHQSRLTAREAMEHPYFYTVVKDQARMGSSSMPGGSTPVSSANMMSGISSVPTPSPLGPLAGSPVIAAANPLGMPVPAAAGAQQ
T19 sequence (P67870 whole entry partner): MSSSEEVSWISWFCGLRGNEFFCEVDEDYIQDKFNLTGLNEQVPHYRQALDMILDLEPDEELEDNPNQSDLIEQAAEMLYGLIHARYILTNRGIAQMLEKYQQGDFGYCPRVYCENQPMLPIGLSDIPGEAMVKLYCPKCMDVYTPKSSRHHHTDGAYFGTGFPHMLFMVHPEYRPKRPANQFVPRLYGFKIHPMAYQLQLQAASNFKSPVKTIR
T22 sequence (Q8IW41 whole entry): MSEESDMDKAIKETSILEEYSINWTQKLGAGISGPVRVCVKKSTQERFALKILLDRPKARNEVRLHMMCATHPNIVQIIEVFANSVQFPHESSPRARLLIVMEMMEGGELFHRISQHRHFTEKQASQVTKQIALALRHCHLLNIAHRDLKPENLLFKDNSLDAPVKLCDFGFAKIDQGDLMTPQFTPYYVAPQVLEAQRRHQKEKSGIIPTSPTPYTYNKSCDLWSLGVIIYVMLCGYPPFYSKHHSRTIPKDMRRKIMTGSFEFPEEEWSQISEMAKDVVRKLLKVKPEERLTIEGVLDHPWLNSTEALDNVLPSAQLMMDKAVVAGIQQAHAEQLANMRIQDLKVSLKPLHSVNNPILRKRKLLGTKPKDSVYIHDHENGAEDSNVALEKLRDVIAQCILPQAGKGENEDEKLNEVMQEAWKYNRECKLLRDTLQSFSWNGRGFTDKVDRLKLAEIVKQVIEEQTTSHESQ

Compound: C=C(C)n1c(=O)n(C(C)=O)c2ncc(Br)cc21 [FD162]
- inhibition at 10 µM (PDGFRβ(h)): -8%
- inhibition at 10 µM (Ron(h)): 8%
- inhibition at 10 µM (Abl(h)): 2%
- inhibition at 10 µM (PKCμ(h)): 6%
- inhibition at 10 µM (JNK2α2(h)): 3%
- inhibition at 10 µM (CDK2/cyclinA(h)): -2%
- inhibition at 10 µM [1]: 4%
- inhibition at 10 µM (PKCδ(h)): 18%
- inhibition at 10 µM (CK1δ(h)): 7%
- inhibition at 10 µM (MAPK1(h)): 8%
- inhibition at 10 µM (PKCε(h)): -1%
- inhibition at 10 µM (PI3Kinase(p110β/p85α)(h)): -3%
- inhibition at 10 µM (B-Raf(h)): -6%
- inhibition at 10 µM (Itk(h)): -7%
- inhibition at 10 µM (CaMKIV(h)): 2%
- inhibition at 10 µM (p70S6K(h)): 3%
- inhibition at 10 µM (PKA(h)): -5%
- inhibition at 10 µM (Bmx(h)): -7%
- inhibition at 10 µM (CK2(h)): 15%
- inhibition at 10 µM (PAR-1Bα(h)): 6%
- inhibition at 10 µM (BTK(h)): 7%
- inhibition at 10 µM (PRAK(h)): 10%
- inhibition at 10 µM (CDK7/cyclinH/MAT1(h)): -8%
- inhibition at 10 µM (MAPK2(h)): -6%
- inhibition at 10 µM (PKCθ(h)): -3%
- inhibition at 10 µM [2]: 3%
- inhibition at 10 µM (FGFR1(h)): 4%
- inhibition at 10 µM (PI3Kinase(p120γ)(h)): 2%
- inhibition at 10 µM (Met(h)): -9%
- inhibition at 10 µM (PKCζ(h)): 5%
- inhibition at 10 µM (PRK2(h)): -9%
- inhibition at 10 µM (Rsk3(h)): 2%
- inhibition at 10 µM (PKBβ(h)): 4%
- inhibition at 10 µM (CaMKIIβ(h)): 2%
- inhibition at 10 µM [3]: 4%
- inhibition at 10 µM (MST2(h)): 1%
- inhibition at 10 µM (PKD2(h)): 11%
- inhibition at 10 µM (PKCβII(h)): 6%
- inhibition at 10 µM (Rsk2(h)): 4%
